# Test results from US20120101087A1, “Generation of Combinatorial Synthetic Libraries and Screening for Novel Proadhesins and Nonadhesins” (priority 2007, published 2012).
# Like-named read-outs stand apart in the source and are kept apart here.
# Assays:
# [1] = Solubility in water (solubility classes of screening compounds); assay type: physicochemical
# [2] = test system: Dengue 2 (DENV-2 strain NG-2); assay: microbe, parasite or virus in culture; assay type: cell-based, Dengue virus
# [3] = test system: MRSA Staphylococcus aureus; assay: Anti-adhesion assay for MRSA Staphylococcus aureus; assay type: cell-based; conditions: for IC50: read-out: IC50 anti-adhesion MRSA Staphylococcus aureus; for ICMAX (μM), IC100: maximal inhibition given as IC100
# P. aerug. = assay: Effectiveness towards P. aerug. (cystic fibrosis application, IC50 % wt/vol); assay type: cell-based, Pseudomonas aeruginosa
# Dengue virus = assay: Direct binding assay (DART TOF-MS) to Dengue virus; conditions: FIG. 6
# Excerpt: The virus particles were collected and fixed in 100% (USP) ethanol prior to DART TOF-MS analysis. The closed end of a borosilicate glass capillary tube was immersed in the virion solution and passed through the DART He plasma to obtain mass spectra of virion surface-bound chemistries. […] The same conditions were used to assess the binding of composition here to bacterial species.
# Staphylococcus areus = assay: Direct binding assay (DART TOF-MS) to Staphylococcus aureus; conditions: FIG. 7
# Colletotrichum acutatum = assay: Petri dish assay for activity against Colletotrichum acutatum (spore adhesion to polystyrene)
# S. aureus = assay: Effectiveness towards S. aureus (IC50 % wt/vol); assay type: cell-based, Staphylococcus aureus
compound,measurement,setting,value
CNC(=O)C(Cc1ccc(OS(C)(=O)=O)cc1)NC(=O)COCC(=O)Nc1cccc(OS(C)(=O)=O)c1 (stereo not shown) [Compound A02],Solubility in water,[1],insoluble in water
CNC(=O)C(Cc1ccc(OS(=O)(=O)C(F)(F)F)cc1)NC(=O)COCC(=O)Nc1cccc(OS(=O)(=O)C(F)(F)F)c1 (stereo not shown) [Compound B02],Solubility in water,[1],insoluble in water
CCN(CCOC(=O)/C=C/c1ccc(O)cc1)Cc1cc(Cl)ccc1O [Compound I],Dengue infection when compound is bound to virus,"[2]; FIG. 6, virions from direct binding assay",inhibited
same,Adhesion of Staphylococcus areus when compound is bound,[3]; FIG. 7,blocks adhesion
same,"ICMAX (μM), IC70","[3]; maximal inhibition printed as IC70, value is the concentration",IC70 - 120 μM
same,"IC50 (% wt/vol), pathogen P. aerug.",P. aerug.,0.001 % wt/vol
same,Direct binding to Dengue virus (DART-MS peak),Dengue virus,direct binding
same,Direct binding to Staphylococcus areus (DART-MS peak),Staphylococcus areus,binds to the bacteria
same,"IC50 (% wt/vol), pathogen C. acut.",Colletotrichum acutatum,0.004 % wt/vol
CN(CCCNC(=O)c1ccc(O)cc1)CCCNC(=O)c1ccc2cc(O)ccc2c1 [III],IC50,"[3]; Staphylococcus aureus, MRSA",7.1 µM
same,"ICMAX (μM), IC100",[3]; value is the concentration,IC100 - 100 μM
same,"IC50 (% wt/vol), pathogen S. aure.",S. aureus,<0.017 % wt/vol
same,"IC50 (% wt/vol), pathogen P. aerug.",P. aerug.,0.001 % wt/vol
same,"IC50 (% wt/vol), pathogen C. acut.",Colletotrichum acutatum,<0.005 % wt/vol
CN(CCCNC(=O)c1ccc(O)cc1)CCCNC(=O)c1ccc(O)cc1 [IV],IC50,"[3]; Staphylococcus aureus, MRSA",1.5 µM
same,IC90,"[3]; Staphylococcus aureus, MRSA, read-out: ICMAX (μM), IC90",10 µM
O=C(c1ccc(O)cc1)N1CCCN(C(=O)c2ccc3cc(O)ccc3c2)CC1 [VI],IC50,"[2]; Dengue virus, DENV2, LLC-MK2, read-out: IC50 Dengue 2, anti-infection (adhesion)",114 µM
same,IC50,"[3]; Staphylococcus aureus, MRSA",2.5 µM
same,"ICMAX (μM), IC100",[3]; value is the concentration,IC100 - 10 μM
same,"IC50 (% wt/vol), pathogen S. aure.",S. aureus,<0.017 % wt/vol
same,"IC50 (% wt/vol), pathogen P. aerug.",P. aerug.,<0.005 % wt/vol
same,"IC50 (% wt/vol), pathogen C. acut.",Colletotrichum acutatum,<0.005 % wt/vol
"O=C(O)/C=C/c1ccc(OS(=O)(=O)O)cc1 [Zosteric Acid, reference compound]",IC50,"[2]; from graph of % inhibition versus concentration, read-out: IC50 Dengue 2, anti-infection (adhesion)",1190 µM
same,"ICMAX (μM), IC100",[3]; value is the concentration,IC100 - 90 μM
same,IC50,[3],24.8 µM
